Tests used:
[1] = Ratio of brain to plasma partition coefficient in Sprague-Dawley rat at 0.2 to 0.25 mg/kg, iv administered as cassette dose after 0.25 hrs; format: ADME, organism-based; details: for Kp: brain, 0.25 h; for Kp at 0.25 h: Sprague-Dawley, brain and plasma
[2] = Fraction unbound in human plasma; format: ADME, cell-free
[3] = target: T1, Muscarinic acetylcholine receptor M4 (Homo sapiens, UniProt P08173); experiment: Positive allosteric modulation of human M4 receptor expressed in CHO cells coexpressing Gqi5 by calcium mobilization assay; format: functional, cell-based; details: read-out: EC50
T1 sequence (P08173 whole entry): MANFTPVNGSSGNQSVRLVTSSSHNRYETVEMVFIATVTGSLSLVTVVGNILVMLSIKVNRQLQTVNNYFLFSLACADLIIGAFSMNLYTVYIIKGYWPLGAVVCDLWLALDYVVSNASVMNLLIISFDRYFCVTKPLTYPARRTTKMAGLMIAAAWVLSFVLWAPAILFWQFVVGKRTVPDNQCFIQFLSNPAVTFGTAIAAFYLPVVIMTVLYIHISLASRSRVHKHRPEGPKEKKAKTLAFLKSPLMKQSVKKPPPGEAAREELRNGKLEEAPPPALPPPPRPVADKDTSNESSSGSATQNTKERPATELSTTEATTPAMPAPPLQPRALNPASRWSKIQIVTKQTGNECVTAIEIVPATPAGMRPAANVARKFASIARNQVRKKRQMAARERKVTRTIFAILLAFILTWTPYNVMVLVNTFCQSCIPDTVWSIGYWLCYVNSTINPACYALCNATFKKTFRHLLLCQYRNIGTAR

[4] = target: T2, Muscarinic acetylcholine receptor M4 (Homo sapiens) (UniProt P08173); experiment: Positive allosteric modulation of human M4 receptor expressed in CHO cells coexpressing Gqi5 by calcium mobilization assay relative to acetylcholine; format: functional, cell-based
T2 sequence (whole entry): T1 sequence (P08173 whole entry)

[5] = tested on: Plasma; experiment: (§1) Fraction unbound in rat plasma; format: ADME, cell-free
[6] = Ratio of unbound brain-to-plasma concentration in Sprague-Dawley rat at 0.2 to 0.25 mg/kg, iv administered as cassette dose after 0.25 hrs; format: ADME, organism-based
[7] = Drug metabolism in rat hepatic microsomes assessed as hydroxylation of 5,6-dimethyl moiety; format: ADME, Liver, Microsome
[8] = Drug metabolism in human hepatic microsomes assessed as compound oxidation; format: ADME, Liver, Microsome
[9] = target: T1, Muscarinic acetylcholine receptor M4; experiment: Antagonist activity at human M4 receptor expressed in CHO cells coexpressing Gqi5 by calcium mobilization assay; format: functional, cell-based
[10] = as §1; format: ADME, cell-free
[11] = target: T2, Muscarinic acetylcholine receptor M4 (Homo sapiens); experiment: Antagonist activity at human M4 receptor expressed in CHO cells coexpressing Gqi5 assessed as acetylcholine-induced calcium mobilization; format: functional, cell-based; design: scale not given: the % may be the effect or the level left
[12] = target: T3, Muscarinic acetylcholine receptor M4 (Rattus norvegicus) (UniProt P08485); experiment: Positive allosteric modulation of rat M4 receptor expressed in CHO cells coexpressing Gqi5 by calcium mobilization assay relative to acetylcholine; format: functional, cell-based
T3 sequence (whole entry): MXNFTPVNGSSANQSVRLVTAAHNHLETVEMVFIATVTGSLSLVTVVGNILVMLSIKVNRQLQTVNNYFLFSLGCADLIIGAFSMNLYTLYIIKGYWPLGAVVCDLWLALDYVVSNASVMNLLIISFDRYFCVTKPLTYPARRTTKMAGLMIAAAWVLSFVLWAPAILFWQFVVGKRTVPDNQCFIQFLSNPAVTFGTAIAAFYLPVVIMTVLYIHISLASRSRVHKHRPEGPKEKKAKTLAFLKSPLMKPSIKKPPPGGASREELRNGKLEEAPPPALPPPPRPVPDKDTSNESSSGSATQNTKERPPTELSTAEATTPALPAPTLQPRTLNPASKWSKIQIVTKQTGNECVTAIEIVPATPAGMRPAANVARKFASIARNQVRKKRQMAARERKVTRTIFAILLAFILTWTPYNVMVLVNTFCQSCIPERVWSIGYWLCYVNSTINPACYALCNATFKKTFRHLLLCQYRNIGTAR

[13] = target: T4, Muscarinic acetylcholine receptor M1 (Homo sapiens, UniProt P11229); experiment: Positive allosteric modulation of human M1 receptor expressed in CHOK1 cells by calcium mobilization assay
T4 sequence (P11229 whole entry): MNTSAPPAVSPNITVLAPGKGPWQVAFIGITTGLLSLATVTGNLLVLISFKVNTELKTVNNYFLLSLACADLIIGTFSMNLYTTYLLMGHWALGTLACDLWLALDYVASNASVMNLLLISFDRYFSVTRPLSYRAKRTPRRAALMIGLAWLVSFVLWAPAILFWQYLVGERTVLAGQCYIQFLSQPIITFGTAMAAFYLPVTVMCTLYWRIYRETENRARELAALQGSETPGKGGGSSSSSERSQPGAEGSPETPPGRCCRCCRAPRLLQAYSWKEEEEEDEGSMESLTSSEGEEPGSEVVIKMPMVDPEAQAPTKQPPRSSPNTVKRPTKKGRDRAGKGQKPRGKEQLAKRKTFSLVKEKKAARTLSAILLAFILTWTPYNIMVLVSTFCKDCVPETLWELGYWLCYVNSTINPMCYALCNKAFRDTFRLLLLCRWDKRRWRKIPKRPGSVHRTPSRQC

[14] = target: T5, Muscarinic acetylcholine receptor M2 (Homo sapiens, UniProt P08172); experiment: Positive allosteric modulation of human M2
T5 sequence (P08172 whole entry): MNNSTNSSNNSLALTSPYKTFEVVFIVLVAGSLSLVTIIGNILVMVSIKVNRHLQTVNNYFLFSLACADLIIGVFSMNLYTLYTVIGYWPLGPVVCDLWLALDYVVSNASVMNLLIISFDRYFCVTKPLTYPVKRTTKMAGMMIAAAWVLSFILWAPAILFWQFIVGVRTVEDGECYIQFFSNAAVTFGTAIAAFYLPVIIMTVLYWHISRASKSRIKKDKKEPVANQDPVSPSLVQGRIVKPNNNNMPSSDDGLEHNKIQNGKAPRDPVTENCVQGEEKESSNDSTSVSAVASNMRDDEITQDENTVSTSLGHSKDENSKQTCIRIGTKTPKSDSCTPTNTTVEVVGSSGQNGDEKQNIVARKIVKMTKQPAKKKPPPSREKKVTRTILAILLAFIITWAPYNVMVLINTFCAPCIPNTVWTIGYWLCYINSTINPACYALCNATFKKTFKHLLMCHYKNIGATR

[15] = target: T6, Muscarinic acetylcholine receptor M4 (Rattus norvegicus, UniProt P08485); experiment: Positive allosteric modulation of rat M4 receptor expressed in CHO cells coexpressing Gqi5 by calcium mobilization assay; format: functional, cell-based
T6 sequence (P08485 whole entry): T3 sequence (whole entry)

[16] = tested on: Brain; experiment: Fraction unbound in rat brain homogenate; format: ADME, tissue-based
[17] = target: Muscarinic acetylcholine receptor M3 (Homo sapiens, UniProt P20309); experiment: Positive allosteric modulation of human M3
Sequence of Muscarinic acetylcholine receptor M3 (P20309 whole entry): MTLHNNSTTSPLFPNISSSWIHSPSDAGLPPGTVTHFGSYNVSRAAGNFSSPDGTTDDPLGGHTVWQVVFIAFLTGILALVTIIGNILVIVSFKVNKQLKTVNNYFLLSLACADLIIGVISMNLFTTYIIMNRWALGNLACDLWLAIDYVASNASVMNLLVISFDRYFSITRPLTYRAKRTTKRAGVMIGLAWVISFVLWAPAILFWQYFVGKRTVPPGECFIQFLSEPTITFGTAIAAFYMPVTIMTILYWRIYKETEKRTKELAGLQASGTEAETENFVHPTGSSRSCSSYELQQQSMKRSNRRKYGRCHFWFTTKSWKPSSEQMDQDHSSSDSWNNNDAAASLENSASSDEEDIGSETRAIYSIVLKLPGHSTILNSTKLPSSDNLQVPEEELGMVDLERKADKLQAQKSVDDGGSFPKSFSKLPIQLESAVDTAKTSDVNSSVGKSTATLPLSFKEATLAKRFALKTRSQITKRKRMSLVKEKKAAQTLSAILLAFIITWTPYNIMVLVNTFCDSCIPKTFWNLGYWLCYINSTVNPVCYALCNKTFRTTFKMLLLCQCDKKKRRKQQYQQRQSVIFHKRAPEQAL

[18] = target: T7, Muscarinic acetylcholine receptor M5 (Homo sapiens, UniProt P08912); experiment: Positive allosteric modulation of human M5 receptor expressed in CHOK1 cells by calcium mobilization assay; format: functional, cell-based, CHO-K1
T7 sequence (P08912 whole entry): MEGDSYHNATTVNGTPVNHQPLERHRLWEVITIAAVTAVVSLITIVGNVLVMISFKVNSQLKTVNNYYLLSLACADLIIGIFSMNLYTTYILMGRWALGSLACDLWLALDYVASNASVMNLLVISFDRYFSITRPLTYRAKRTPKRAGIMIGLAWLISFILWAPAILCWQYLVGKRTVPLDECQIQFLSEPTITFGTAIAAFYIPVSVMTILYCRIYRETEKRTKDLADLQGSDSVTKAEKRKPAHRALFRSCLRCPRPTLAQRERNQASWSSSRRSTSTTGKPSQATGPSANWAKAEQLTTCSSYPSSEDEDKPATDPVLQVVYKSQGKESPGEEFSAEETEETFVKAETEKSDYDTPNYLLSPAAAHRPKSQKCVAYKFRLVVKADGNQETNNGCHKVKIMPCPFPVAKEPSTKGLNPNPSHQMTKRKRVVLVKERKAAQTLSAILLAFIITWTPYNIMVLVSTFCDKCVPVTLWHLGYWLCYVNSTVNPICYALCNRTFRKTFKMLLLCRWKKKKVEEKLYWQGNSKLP

Compound | Kp [1] | EC50 [3] [nM] | %max [4] [%] | K(p,uu,brain) [6] | further results
Cc1sc2ncnc(N3CCC(C(=O)N4CCCC4)CC3)c2c1C | 0.45 | 1100 | 68 | 0.45 | Fu [2]: 0.06; Fu [5]: 0.04
Cc1ccc2ncnc(N3CCC(Oc4ccc(C)nc4)CC3)c2c1 | 0.94 | 1200 | 49 | 0.62 | 
Cc1sc2ncnc(N3CCC(Oc4ccc(F)nc4)CC3)c2c1C | 2.8 | 1800 | 68 | 0.34 | 
Cc1sc2ncnc(N3CCC(C(=O)Nc4ccc(C(N)=O)cc4)CC3)c2c1C |  | 390 | 56 |  | 
Cc1ccc(OC2CCN(c3nc(C)nn4ccc(C)c34)CC2)cn1 | 1.42 | 1100 | 58 | 1.95 | 
Cc1sc2ncnc(N3CCC(C(=O)NCc4ccc(S(N)(=O)=O)cc4)CC3)c2c1C |  | 2300 | 67 |  | 
Cc1sc2ncnc(N3CCC(C(=O)N4CC[C@H](F)C4)CC3)c2c1C | 0.17 | 970 | 79 | 0.12 | Fu [2]: 0.05; Fu [5]: 0.12
Cc1sc2ncnc(N3CCC(C(=O)N4CCOCC4)CC3)c2c1C |  | 1700 | 65 |  | 
Cc1sc2ncnc(N3CCC(C(=O)N4CCCc5cc(S(C)(=O)=O)ccc54)CC3)c2c1C |  | 960 | 69 |  | 
Cc1sc2ncnc(N3CCC(C(N)=O)CC3)c2c1C |  | > 10000 | 25 |  | 
Cc1ncc(OC2CCN(c3ncnc4sc(C)c(C)c34)CC2)cn1 | 1.77 | 4400 | 60 | 0.65 | 
Cc1sc2ncnc(N3CCC(C(=O)Nc4cc(Cl)ccc4Cl)CC3)c2c1C |  | 3800 | 69 |  | 
Cc1sc2ncnc(N3CCC(C(=O)Nc4ccc(S(C)(=O)=O)cc4)CC3)c2c1C |  | 850 | 62 |  | 
CNC(=O)c1ccc(NC(=O)C2CCN(c3ncnc4sc(C)c(C)c34)CC2)cc1 |  | 570 | 70 |  | 
Cc1sc2ncnc(N3CCC(C(=O)Nc4ccc(N5CCNC5=O)cc4)CC3)c2c1C |  | 6200 | 40 |  | 
Cc1ccc(OC2CCN(c3cc(C)nc4ccc(F)cc34)CC2)cn1 | 21.4 | 690 | 64 | 18.2 | 
Cc1sc2ncnc(N3CCC(C(=O)Nc4ccc(F)cc4Cl)CC3)c2c1C |  | 1600 | 55 |  | 
Cc1sc2ncnc(N3CCC(Oc4ccc5c(c4)CCO5)CC3)c2c1C | 1.25 | 2300 | 74 | 1.38 | 
Cc1ccc(OC2CCN(c3ncnc4sc(C)c(C)c34)CC2)cn1 | 1.16 | 600 | 65 | 0.74 | Drug metabolism [7]: metabolite_detected; Drug metabolism [8]: metabolite_detected
CCCCN(c1ccc(C)nc1)C1CCN(c2ncnc3sc(C)c(C)c23)CC1 |  |  |  |  | Kp at 0.25 h [1]: 0.2; Fu [2]: > 0.1; IC50 [9]: 1500 nM; fraction unbound [10]: > 0.1; Activity [11]: 8.7%
Cc1sc2ncnc(N3CCC(C(=O)N4CCSCC4)CC3)c2c1C |  | 820 | 75 |  | 
Cc1ccc(OC2CCN(c3ncnc4ccc(F)cc34)CC2)cn1 | 11.1 | 600 | 62 | > 10 | %max [12]: 57%; EC50 [13]: > 10000 nM; EC50 [14]: > 10000 nM; Fu [2]: 0.16; EC50 [15]: 950 nM; Fu [5]: 0.02; Fu [16]: 0.03; EC50 [17]: > 10000 nM; EC50 [18]: > 10000 nM
Cc1sc2ncnc(N3CCC(C(=O)N4CCCC(F)(F)C4)CC3)c2c1C |  | 1900 | 60 |  | 
Cc1sc2ncnc(N3CCC(Oc4ccc(Cl)nc4)CC3)c2c1C | 2.56 | 4300 | 64 | 0.17 | 
CCCN(c1ccc(C)nc1)C1CCN(c2ncnc3sc(C)c(C)c23)CC1 |  |  |  |  | Kp at 0.25 h [1]: 0.2; Fu [2]: > 0.1; IC50 [9]: 2400 nM; fraction unbound [10]: > 0.1; Activity [11]: 9.3%
